Experimental data published in the kinase profiling compilation of Christmann-Franck et al. (2016).

What was measured:
Test in all cases: KINOMEscan competition binding
Conditions in all cases: compound 10.0 µM
LATS2 (human) = LATS2 (human) (UniProt Q9NRM7)
PLK1 (human) = PLK1 (human) (UniProt P53350)
YSK4 (human) = YSK4 (human) (UniProt Q56UN5)
MAPK11 (human) = MAPK11 (human) (UniProt Q15759)
FGFR4 (human) = FGFR4 (human) (UniProt P22455)
MYLK3 (human) = MYLK3 (human) (UniProt Q32MK0)
[1] = tested on: FLT3 (human), P36888 [R834Q]
MAPK7 (human) = MAPK7 (human) (UniProt Q13164)
NTRK1 (human) = NTRK1 (human) (UniProt P04629)
TNIK (human) = TNIK (human) (UniProt Q9UKE5)
FGFR3 (human) = FGFR3 (human) (UniProt P22607)
DDR2 (human) = DDR2 (human) (UniProt Q16832)
ADCK3 (human) = ADCK3 (human) (UniProt Q8NI60)
RIPK4 (human) = RIPK4 (human) (UniProt P57078)
MUSK (human) = MUSK (human) (UniProt O15146)
FLT4 (human) = FLT4 (human) (UniProt P35916)
BRSK1 (human) = BRSK1 (human) (UniProt Q8TDC3)
CDC2L2 (human) = CDC2L2 (human) (UniProt Q9UQ88)
CLK2 (human) = CLK2 (human) (UniProt P49760)
PRKCH (human) = PRKCH (human) (UniProt P24723)
TEC (human) = TEC (human) (UniProt P42680)
PAK4 (human) = PAK4 (human) (UniProt O96013)
CAMK2B (human) = CAMK2B (human) (UniProt Q13554)
STK3 (human) = STK3 (human) (UniProt Q13188)
MYO3B (human) = MYO3B (human) (UniProt Q8WXR4)
TLK2 (human) = TLK2 (human) (UniProt Q86UE8)
PRKACB (human) = PRKACB (human) (UniProt P22694)
MYO3A (human) = MYO3A (human) (UniProt Q8NEV4)
CDK8 (human) = CDK8 (human) (UniProt P49336)
YES1 (human) = YES1 (human) (UniProt P07947)
MAP2K5 (human) = MAP2K5 (human) (UniProt Q13163)
SRC (human) = SRC (human) (UniProt P12931)
CDK16 (human) = CDK16 (human) (UniProt Q00536)
MAP2K7 (human) = MAP2K7 (human) (UniProt O14733)
TGFBR2 (human) = TGFBR2 (human) (UniProt P37173)
CSNK1A1 (human) = CSNK1A1 (human) (UniProt P48729)
PRKACA (human) = PRKACA (human) (UniProt P17612)
FER (human) = FER (human) (UniProt P16591)
STK24 (human) = STK24 (human) (UniProt Q9Y6E0)
AURKA (human) = AURKA (human) (UniProt O14965)
PLK2 (human) = PLK2 (human) (UniProt Q9NYY3)

ADCK3 (human), sequence (Q8NI60 whole entry, looked up): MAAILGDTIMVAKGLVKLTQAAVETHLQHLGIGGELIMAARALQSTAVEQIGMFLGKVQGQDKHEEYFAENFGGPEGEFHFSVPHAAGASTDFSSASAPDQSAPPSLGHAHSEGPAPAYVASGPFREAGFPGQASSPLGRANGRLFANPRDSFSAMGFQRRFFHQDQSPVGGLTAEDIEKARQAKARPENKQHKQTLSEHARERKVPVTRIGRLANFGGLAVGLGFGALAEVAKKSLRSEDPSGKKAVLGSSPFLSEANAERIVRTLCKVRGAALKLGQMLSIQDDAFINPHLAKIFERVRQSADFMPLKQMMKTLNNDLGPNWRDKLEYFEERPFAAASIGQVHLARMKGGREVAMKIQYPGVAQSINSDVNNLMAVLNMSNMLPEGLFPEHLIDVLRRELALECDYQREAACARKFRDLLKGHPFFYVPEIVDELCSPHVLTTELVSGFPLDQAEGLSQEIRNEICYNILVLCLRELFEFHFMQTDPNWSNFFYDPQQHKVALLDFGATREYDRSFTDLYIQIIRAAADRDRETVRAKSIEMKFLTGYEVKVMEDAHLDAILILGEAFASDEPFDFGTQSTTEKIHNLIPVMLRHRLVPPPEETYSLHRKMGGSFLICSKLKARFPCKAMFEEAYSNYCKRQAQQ
CDK8 (human), sequence (P49336 whole entry, looked up): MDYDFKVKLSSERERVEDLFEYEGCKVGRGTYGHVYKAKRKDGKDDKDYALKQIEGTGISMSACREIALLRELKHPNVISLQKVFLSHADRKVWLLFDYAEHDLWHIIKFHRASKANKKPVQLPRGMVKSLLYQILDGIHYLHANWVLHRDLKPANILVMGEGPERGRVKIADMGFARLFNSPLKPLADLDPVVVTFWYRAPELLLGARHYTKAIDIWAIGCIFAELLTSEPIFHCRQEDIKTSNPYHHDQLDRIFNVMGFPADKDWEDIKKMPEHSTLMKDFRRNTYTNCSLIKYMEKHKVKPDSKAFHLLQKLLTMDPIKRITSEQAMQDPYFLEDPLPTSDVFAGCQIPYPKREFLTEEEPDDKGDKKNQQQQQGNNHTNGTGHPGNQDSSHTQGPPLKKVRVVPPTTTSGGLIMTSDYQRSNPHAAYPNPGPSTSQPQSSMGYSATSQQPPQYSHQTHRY
YSK4 (human), sequence (Q56UN5 whole entry, looked up): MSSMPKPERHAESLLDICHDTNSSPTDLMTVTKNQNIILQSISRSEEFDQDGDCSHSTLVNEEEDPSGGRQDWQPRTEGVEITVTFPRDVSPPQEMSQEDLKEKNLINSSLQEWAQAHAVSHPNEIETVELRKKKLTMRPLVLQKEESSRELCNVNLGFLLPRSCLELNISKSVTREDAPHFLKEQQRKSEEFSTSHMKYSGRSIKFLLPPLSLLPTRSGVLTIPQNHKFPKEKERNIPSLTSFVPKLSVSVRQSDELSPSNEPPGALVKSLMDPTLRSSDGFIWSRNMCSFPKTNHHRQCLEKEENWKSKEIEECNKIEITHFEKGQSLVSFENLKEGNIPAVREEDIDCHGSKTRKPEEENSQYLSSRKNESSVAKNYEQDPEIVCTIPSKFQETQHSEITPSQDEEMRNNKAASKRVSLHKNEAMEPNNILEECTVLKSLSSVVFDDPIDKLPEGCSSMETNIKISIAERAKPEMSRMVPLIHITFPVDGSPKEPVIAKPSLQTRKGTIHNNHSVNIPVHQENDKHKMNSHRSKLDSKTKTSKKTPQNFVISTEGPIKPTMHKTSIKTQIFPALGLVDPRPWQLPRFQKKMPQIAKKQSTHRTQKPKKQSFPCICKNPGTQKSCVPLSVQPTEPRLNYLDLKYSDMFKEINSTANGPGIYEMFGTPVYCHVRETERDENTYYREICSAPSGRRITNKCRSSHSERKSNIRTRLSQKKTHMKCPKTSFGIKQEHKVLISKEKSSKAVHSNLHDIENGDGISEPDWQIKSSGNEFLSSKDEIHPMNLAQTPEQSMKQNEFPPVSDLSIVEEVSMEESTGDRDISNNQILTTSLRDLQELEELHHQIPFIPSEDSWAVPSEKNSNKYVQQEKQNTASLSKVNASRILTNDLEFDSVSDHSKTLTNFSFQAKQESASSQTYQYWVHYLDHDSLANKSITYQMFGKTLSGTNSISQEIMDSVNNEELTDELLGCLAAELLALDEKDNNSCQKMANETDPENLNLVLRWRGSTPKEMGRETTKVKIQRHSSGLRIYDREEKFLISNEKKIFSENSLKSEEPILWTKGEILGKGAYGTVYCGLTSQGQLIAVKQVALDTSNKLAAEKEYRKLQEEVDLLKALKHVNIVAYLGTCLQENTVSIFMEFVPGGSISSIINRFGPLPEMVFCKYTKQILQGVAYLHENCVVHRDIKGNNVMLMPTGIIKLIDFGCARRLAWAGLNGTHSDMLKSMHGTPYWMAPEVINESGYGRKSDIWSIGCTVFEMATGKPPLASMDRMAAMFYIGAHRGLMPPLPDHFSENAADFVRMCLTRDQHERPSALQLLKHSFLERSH
LATS2 (human), sequence (Q9NRM7 whole entry, looked up): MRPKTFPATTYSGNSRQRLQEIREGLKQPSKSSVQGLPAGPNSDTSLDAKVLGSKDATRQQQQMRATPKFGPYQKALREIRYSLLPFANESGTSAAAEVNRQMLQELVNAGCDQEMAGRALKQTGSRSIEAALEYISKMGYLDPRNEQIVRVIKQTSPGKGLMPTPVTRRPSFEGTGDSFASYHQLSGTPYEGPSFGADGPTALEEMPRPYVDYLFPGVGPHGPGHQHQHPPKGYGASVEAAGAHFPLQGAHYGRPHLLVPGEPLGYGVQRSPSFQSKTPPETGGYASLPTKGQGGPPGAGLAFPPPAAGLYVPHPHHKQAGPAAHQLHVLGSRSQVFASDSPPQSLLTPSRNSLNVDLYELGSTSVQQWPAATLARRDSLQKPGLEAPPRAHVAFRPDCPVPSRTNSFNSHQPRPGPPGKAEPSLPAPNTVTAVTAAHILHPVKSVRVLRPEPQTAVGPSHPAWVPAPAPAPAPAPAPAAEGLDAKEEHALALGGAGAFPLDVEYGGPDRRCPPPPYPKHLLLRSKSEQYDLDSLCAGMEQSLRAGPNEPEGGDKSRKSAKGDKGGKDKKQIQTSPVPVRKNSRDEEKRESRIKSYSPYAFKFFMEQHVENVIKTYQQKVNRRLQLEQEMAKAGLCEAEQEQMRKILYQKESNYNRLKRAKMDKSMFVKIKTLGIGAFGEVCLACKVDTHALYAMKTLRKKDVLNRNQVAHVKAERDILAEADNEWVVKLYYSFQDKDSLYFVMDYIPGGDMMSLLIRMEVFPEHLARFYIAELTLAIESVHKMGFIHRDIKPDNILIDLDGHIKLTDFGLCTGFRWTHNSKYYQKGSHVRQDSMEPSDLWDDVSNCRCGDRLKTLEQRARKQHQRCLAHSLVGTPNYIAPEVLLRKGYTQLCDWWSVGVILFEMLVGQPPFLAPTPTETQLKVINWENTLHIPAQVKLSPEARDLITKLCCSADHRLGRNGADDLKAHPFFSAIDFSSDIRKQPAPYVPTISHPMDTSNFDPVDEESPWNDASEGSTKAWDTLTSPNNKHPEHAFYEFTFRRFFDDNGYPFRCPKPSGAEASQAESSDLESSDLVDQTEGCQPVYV
MYO3B (human), sequence (Q8WXR4 whole entry, looked up): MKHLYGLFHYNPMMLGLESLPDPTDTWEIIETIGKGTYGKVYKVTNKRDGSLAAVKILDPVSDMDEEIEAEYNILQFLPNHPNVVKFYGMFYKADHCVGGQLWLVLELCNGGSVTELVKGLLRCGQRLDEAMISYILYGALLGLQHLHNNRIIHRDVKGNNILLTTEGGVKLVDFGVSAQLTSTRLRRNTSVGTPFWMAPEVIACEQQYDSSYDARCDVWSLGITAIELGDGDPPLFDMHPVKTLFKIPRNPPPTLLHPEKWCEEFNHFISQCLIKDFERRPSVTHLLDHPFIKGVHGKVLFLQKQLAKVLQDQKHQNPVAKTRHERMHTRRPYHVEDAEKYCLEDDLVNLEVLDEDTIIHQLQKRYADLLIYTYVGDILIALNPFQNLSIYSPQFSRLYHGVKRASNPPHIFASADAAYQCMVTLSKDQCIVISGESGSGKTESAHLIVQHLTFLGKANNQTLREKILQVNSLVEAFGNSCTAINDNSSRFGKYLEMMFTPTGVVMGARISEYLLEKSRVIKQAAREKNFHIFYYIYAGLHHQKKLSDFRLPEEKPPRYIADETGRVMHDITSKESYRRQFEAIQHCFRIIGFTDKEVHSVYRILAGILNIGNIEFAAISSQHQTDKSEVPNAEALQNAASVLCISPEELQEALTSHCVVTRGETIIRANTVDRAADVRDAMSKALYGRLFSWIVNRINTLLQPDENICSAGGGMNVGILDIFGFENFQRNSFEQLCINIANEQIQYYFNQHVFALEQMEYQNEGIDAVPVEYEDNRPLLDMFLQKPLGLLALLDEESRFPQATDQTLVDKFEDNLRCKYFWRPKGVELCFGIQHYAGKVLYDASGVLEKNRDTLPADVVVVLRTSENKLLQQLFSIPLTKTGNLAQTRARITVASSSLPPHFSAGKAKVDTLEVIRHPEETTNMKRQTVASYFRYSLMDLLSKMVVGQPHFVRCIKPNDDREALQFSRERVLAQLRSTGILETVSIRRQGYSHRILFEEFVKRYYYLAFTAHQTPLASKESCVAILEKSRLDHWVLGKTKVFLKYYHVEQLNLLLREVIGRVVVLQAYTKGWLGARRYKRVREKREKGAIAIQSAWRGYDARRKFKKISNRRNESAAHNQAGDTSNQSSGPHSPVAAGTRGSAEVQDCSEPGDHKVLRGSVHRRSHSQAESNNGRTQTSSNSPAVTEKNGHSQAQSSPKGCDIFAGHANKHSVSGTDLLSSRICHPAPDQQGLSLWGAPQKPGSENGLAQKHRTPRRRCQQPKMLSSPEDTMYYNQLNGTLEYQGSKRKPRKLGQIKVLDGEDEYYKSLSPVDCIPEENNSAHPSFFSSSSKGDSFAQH

C=CC(=O)Nc1cc(-n2c(=O)ccc3cnc4ccc(-c5cn[nH]c5)cc4c32)ccc1C
kinase still bound, per cent of control (LATS2 (human)): 53% | kinase still bound, per cent of control (PLK1 (human)): 80% | kinase still bound, per cent of control (YSK4 (human)): 1.2% | kinase still bound, per cent of control (MAPK11 (human)): 89% | kinase still bound, per cent of control (FGFR4 (human)): 100% | kinase still bound, per cent of control (MYLK3 (human)): 100% | kinase still bound, per cent of control [1]: 12% | kinase still bound, per cent of control (MAPK7 (human)): 98% | kinase still bound, per cent of control (NTRK1 (human)): 65% | kinase still bound, per cent of control (TNIK (human)): 47% | kinase still bound, per cent of control (FGFR3 (human)): 89% | kinase still bound, per cent of control (DDR2 (human)): 75% | kinase still bound, per cent of control (ADCK3 (human)): 91% | kinase still bound, per cent of control (RIPK4 (human)): 67% | kinase still bound, per cent of control (MUSK (human)): 93% | kinase still bound, per cent of control (FLT4 (human)): 65% | kinase still bound, per cent of control (BRSK1 (human)): 82% | kinase still bound, per cent of control (CDC2L2 (human)): 100% | kinase still bound, per cent of control (CLK2 (human)): 1.6% | kinase still bound, per cent of control (PRKCH (human)): 100% | kinase still bound, per cent of control (TEC (human)): 6% | kinase still bound, per cent of control (PAK4 (human)): 100% | kinase still bound, per cent of control (CAMK2B (human)): 44% | kinase still bound, per cent of control (STK3 (human)): 100% | kinase still bound, per cent of control (MYO3B (human)): 100% | kinase still bound, per cent of control (TLK2 (human)): 100% | kinase still bound, per cent of control (PRKACB (human)): 100% | kinase still bound, per cent of control (MYO3A (human)): 94% | kinase still bound, per cent of control (CDK8 (human)): 93% | kinase still bound, per cent of control (YES1 (human)): 94% | kinase still bound, per cent of control (MAP2K5 (human)): 0.3% | kinase still bound, per cent of control (SRC (human)): 100% | kinase still bound, per cent of control (CDK16 (human)): 97% | kinase still bound, per cent of control (MAP2K7 (human)): 14% | kinase still bound, per cent of control (TGFBR2 (human)): 82% | kinase still bound, per cent of control (CSNK1A1 (human)): 81% | kinase still bound, per cent of control (PRKACA (human)): 100% | kinase still bound, per cent of control (FER (human)): 100% | kinase still bound, per cent of control (STK24 (human)): 95% | kinase still bound, per cent of control (AURKA (human)): 63% | kinase still bound, per cent of control (PLK2 (human)): 89%

COc1ccc(N(C(=O)Oc2c(C)cccc2C)c2ccnc(Nc3ccc(N4CCN(C)CC4)cc3)n2)c(OC)c1
kinase still bound, per cent of control (LATS2 (human)): 70% | kinase still bound, per cent of control (PLK1 (human)): 100% | kinase still bound, per cent of control (YSK4 (human)): 6% | kinase still bound, per cent of control (MAPK11 (human)): 11% | kinase still bound, per cent of control (FGFR4 (human)): 7.4% | kinase still bound, per cent of control (MYLK3 (human)): 100% | kinase still bound, per cent of control [1]: 26% | kinase still bound, per cent of control (MAPK7 (human)): 39% | kinase still bound, per cent of control (NTRK1 (human)): 78% | kinase still bound, per cent of control (TNIK (human)): 37% | kinase still bound, per cent of control (FGFR3 (human)): 1% | kinase still bound, per cent of control (DDR2 (human)): 0% | kinase still bound, per cent of control (ADCK3 (human)): 26% | kinase still bound, per cent of control (RIPK4 (human)): 92% | kinase still bound, per cent of control (MUSK (human)): 43% | kinase still bound, per cent of control (FLT4 (human)): 16% | kinase still bound, per cent of control (BRSK1 (human)): 68% | kinase still bound, per cent of control (CDC2L2 (human)): 42% | kinase still bound, per cent of control (CLK2 (human)): 78% | kinase still bound, per cent of control (PRKCH (human)): 35% | kinase still bound, per cent of control (TEC (human)): 3.7% | kinase still bound, per cent of control (PAK4 (human)): 97% | kinase still bound, per cent of control (CAMK2B (human)): 98% | kinase still bound, per cent of control (STK3 (human)): 23% | kinase still bound, per cent of control (MYO3B (human)): 18% | kinase still bound, per cent of control (TLK2 (human)): 76% | kinase still bound, per cent of control (PRKACB (human)): 2.5% | kinase still bound, per cent of control (MYO3A (human)): 69% | kinase still bound, per cent of control (CDK8 (human)): 100% | kinase still bound, per cent of control (YES1 (human)): 0.05% | kinase still bound, per cent of control (MAP2K5 (human)): 0.55% | kinase still bound, per cent of control (SRC (human)): 0.05% | kinase still bound, per cent of control (CDK16 (human)): 98% | kinase still bound, per cent of control (MAP2K7 (human)): 85% | kinase still bound, per cent of control (TGFBR2 (human)): 16% | kinase still bound, per cent of control (CSNK1A1 (human)): 71% | kinase still bound, per cent of control (PRKACA (human)): 1.6% | kinase still bound, per cent of control (FER (human)): 0.85% | kinase still bound, per cent of control (STK24 (human)): 52% | kinase still bound, per cent of control (AURKA (human)): 6.8% | kinase still bound, per cent of control (PLK2 (human)): 100%
